Values quoted from earlier work as cited in patent publication US20220024925A1, “Deuterium-Substituted 7-Substituted-2-(Benzylamino)-6-Ozopurine Compounds and Uses Thereof” (Acurx Pharmaceuticals LLC, priority 2020, published 2022).

Assays:
[1] = test system: C. diff; conditions: stated in words only; see Wright et al., U.S. Pat. No. 8,796,292
[2] = test system: other, intestinal Gram-positive anaerobes; conditions: stated in words only; see Wright et al., U.S. Pat. No. 8,796,292

## O=c1[nH]c(NCc2ccc(Cl)c(Cl)c2)nc2ncn(CCN3CCOCC3)c12 [Compound I-1, 2-((3,4-dichlorobenzyl)amino)-7-(2-morpholinoethyl)-1,7-dihydro-6H-purin-6-one]
[1]
  activity against the growth of the intestinal anaerobe C. diff: potent activity
[2]
  activity against other, intestinal Gram-positive anaerobes: weak activity
